# Experimental data taken from patent publication EP4455667B1, “DEVICE FOR DETECTING MOLECULES” (Viscera Technologies Ltd, priority 2023, dated 2024).
# Assays:
# avidin = avidin (Gallus gallus, UniProt P02701); details: association constant from literature (Hermanson); cited from earlier work
# [1] = test system: anti-3-Nitrotyrosine antibody; test: Lateral flow assay for NHPA in synthetic urine; format: binding
# Protocol: The LFA was assembled using a nitrocellulose membrane attached to a plastic backing card (Figure 13). An anti-3-Nitrotyrosine antibody line was printed at 1mg/mL concentration, the line consisted of 20 lines, each with 25 µm width, using 0.1 µL antibody solution/cm/line. A streptavidin line was printed at 1mg/mL concentration and consisted of 10 lines, each with 50 µm width, using 0.1 µL streptavidin solution/cm/line. The membrane was sealed in a foil bag with desiccant silica gel sachets and stored in the fridge until used.
# On the test day the wicking pad (5 x 17 mm) was attached to the membrane (2 mm overlap) and the plastic card was cut into strips (5 mm width). Glass fibre conjugate pads (5 x 7 mm) were soaked in AuNP-BSA-biotin-NHPA conjugate (0.5 OD) and dried in a desiccator for 2 hours. The conjugate pad was then attached to the membrane (2mm overlap). […]
# Different concentrations of NHPA in synthetic urine (200 µL) were prepared in respective wells of a low-binding 96-well microplate. […] The images of the test strips (Figure 14) were analysed by ImageJ software. […] The grey level of the pixels in each test line was measured and subtracted from the background to calculate each line intensity and its dependence on the NHPA concentration (Figure 15b).
# anti-caffeine antibody [2] = test: Modified competitive lateral flow assay for caffeine with two test lines; format: binding, mouse
# Protocol: The LFA was assembled using a nitrocellulose membrane attached to a plastic backing card. Anti-caffeine antibody and avidin were immobilised at test lines 1 and 2, respectively, in the detection zone. […] The membrane was dried at RT for 2 hours. The wick was attached to the membrane (2 mm overlap) and the plastic card was cut into strips (5 mm x 60 mm). Glass fibre conjugate pads were soaked in 30% (w/v) sucrose in Milli-Q water and dried in an oven at 37°C. […] The conjugate pad was attached to the membrane and the prepared strips were kept in a desiccator until use.
# Different concentrations of caffeine in 2% (w/v) BSA were prepared in respective wells of a low-binding 96-well microplate. The test strips were placed into each well vertically for 3 min, after which they were removed and left to dry. Images of the test strips were taken and analysed by ImageJ software. The grey level of the pixels in each test line was measured and subtracted from the background.
# The effects of applying different concentrations of caffeine to the LFA were investigated to determine the working range and sensitivity that can be achieved for caffeine detection. The LFA test strips were prepared according to the design of the assay shown in Figure 3 and run using different concentrations of caffeine ranging from 1 ng/mL to 100 µg/mL. The optimised running buffer included glycerol as an agent to regulate wicking rate, and BSA and Tween-20 as blocking agents to reduce non-specific binding.
# As well as visual inspection, the signal intensity of the test lines was analysed using ImageJ software. The signal intensities of test lines 1 and 2 at different caffeine concentrations were plotted in a semi-log graph as shown in Figure 11 (results were measured in triplicates). […] Table 1 - Semi-quantitative analysis of caffeine concentration based on the ratio between the signal intensities of test lines 1 and 2.
# anti-caffeine antibody [3] = test system: anti-caffeine antibody
# Protocol: (§1) A 96-well ELISA plate was coated with anti-caffeine antibody (50 µL, 6 µg/mL, in PBS buffer, pH 7.4) by incubating the plate for 1 hour at RT. The plate was blocked with 2% (w/v) BSA in PBS with 0.05% (v/v) Tween-20, pH 7.4, for 2 hours at RT. BSA-biotin-caffeine conjugate (50 µL) at different concentrations were added to the plate and incubated for 1 hour at RT. HRP-labelled avidin (50 µL, 1:5000 dilution in blocking buffer) was added and the plate was incubated for 1 hour in the dark at RT. After thorough washing of the plate, the colour was developed by adding 3,3',5,5'-tetramethylbenzidine (TMB) liquid substrate system (50 µL). The reaction was stopped by the addition of 1 M H2SO4 (50 µL) and the absorbance at 450 nm was recorded.
# (§2) Same general protocol as direct ELISA. Plate was coated with anti-caffeine antibody (50 µL, 6 µg/mL, in PBS buffer, pH 7.4) and blocked with 2% (w/v) BSA in PBS with 0.05% (v/v) Tween-20, pH 7.4. BSA-biotin-caffeine conjugate (25 µL, 40 mg/mL) was mixed with caffeine (25 µL) at different concentrations of the latter, added to the plate and incubated for 1 hour at RT. HRP-labelled avidin (50 µL, 1:5000 dilution) was added and the colour was developed by adding TMB liquid substrate system (50 µL). The reaction was stopped by the addition of 1 M H2SO4 (50 µL) and the absorbance at 450 nm was recorded.
# (§3) The same ELISA format was used to test the competition of the BSA-biotin-caffeine conjugate and free caffeine for binding to the anti-caffeine antibody coated on the wells. A fixed amount of BSA-biotin-caffeine conjugate (20 µg/mL) was used and the concentration of free caffeine was varied.
# anti-caffeine antibody [4] = test: Competitive ELISA (free caffeine vs caffeine conjugate)
# Protocol: as §1, §2, §3
# [5] = strips kept in a desiccator for seven days at room temperature
# Chain of avidin (P02701 25-152, species assumed): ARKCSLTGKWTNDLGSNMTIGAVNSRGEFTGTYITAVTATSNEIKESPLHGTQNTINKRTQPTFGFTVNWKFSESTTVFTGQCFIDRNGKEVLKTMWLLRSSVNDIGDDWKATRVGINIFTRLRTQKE
smiles,measurement,setting,value
"O=C(O)c1ccccc1N=Nc1ccc(O)cc1 [HABA, 4'-hydroxyazobenzene-2-carboxylic acid]",binding affinity for avidin,avidin,6e+06 M⁻¹
"O=C(O)Cc1ccc(O)c([N+](=O)[O-])c1 [NHPA, 3-nitro-4-hydroxyphenylacetic acid]",decrease of the antibody line's intensity,[1]; 250 ng/ml of NHPA in urine samples (synthetic urine),over 90%
same,threshold of the assay for NHPA detection in urine,"[1]; synthetic urine, also printed as 250 ± 80 ng/ml",170 to 330 ng/mL
O=C(O)CCCC[C@@H]1SC[C@@H]2NC(=O)N[C@@H]21 [biotin],binding affinity for avidin,avidin,1.3e+15 M⁻¹
Cn1c(=O)c2c(ncn2C)n(C)c1=O [caffeine],IC50 value of test line 1,"anti-caffeine antibody [2]; anti-caffeine antibody line, signal intensity by ImageJ, triplicates, fresh strips",5 ng/mL
same,IC50 value of test line 2,"anti-caffeine antibody [2]; avidin line, signal intensity by ImageJ, triplicates, fresh strips",8 ng/mL
same,IC50 value of test line 1,anti-caffeine antibody [2]; [5],3 ng/mL
same,IC50 value of test line 2,anti-caffeine antibody [2]; [5],11 ng/mL
same,visual detection limit,"anti-caffeine antibody [2]; test line 1 only (no colour developed), no calibration",10000 ng/mL
same,visual detection limit,"anti-caffeine antibody [2]; test line 2, strips stored seven days at room temperature",10 ng/mL
same,visual detection limit,"anti-caffeine antibody [2]; with the second test line (test line 2), fresh strips",10 ng/mL
same,IC50,anti-caffeine antibody [3],7 ng/mL
same,"detection limit, determined by the concentration of caffeine that results in 10% inhibition",anti-caffeine antibody [4]; BSA-biotin-caffeine conjugate (20 µg/mL) as competitor,0.03 ng/mL
same,IC50 value,"anti-caffeine antibody [4]; fixed BSA-biotin-caffeine conjugate (20 µg/mL), free caffeine varied, absorbance at 450 nm, dose response fit",1 ng/mL
